Test results: PMC4669143, “Wild Edible Fruit of Prunus nepalensis Ser. (Steud), a Potential Source of Antioxidants, Ameliorates Iron Overload-Induced Hepatotoxicity and Liver Fibrosis in Mice” (PLoS ONE, 2015)
In brackets after ≈: the same amount, converted by molar mass.

Assays:
[1] = DPPH radical scavenging assay; format: biochemical; conditions: mean ± S.D., n = 6
Description: Standard methods were used to evaluate the Fe^3+-reducing capacity of the extract. The DPPH (2,2-diphenyl-1-picrylhydrazyl) scavenging potential of the extract was investigated according to Ghate et al, 2013 [9]. The scavenging percentage of PNME was evaluated from the values of the control and the test samples.

[2] = Fe2+ chelating activity assay; format: biochemical; conditions: for Iron chelation activity (in words): Fig 12C
Description: (§1) The Fe^2+ chelating ability was determined as described earlier. […] The densitometric analysis of the DNA bands was performed using ImageJ 1.47v tool by the software company NIH, USA. The DNA supercoil protection capacity of the fruit extract was expressed as the [P]50 value, the amount of sample required for 50% protection. The degree of inhibition of Fe^2+-mediated lipid peroxidation was assessed by estimating the TBARS by the method of Ghate et al. 2013 [9] using freshly prepared brain homogenates of Swiss albino mouse brains. The results are expressed as a percentage of inhibition.

[3] = Hypochlorous acid scavenging assay; format: biochemical; conditions: mean ± S.D., n = 6
[4] = system: Fe2+-mediated lipid peroxidation; assay: Inhibition of Fe2+-mediated lipid peroxidation (TBARS) in brain homogenates; format: biochemical, Swiss albino mouse; conditions: mouse brain homogenate, mean ± S.D., n = 6
Description: as §1

[5] = Peroxynitrite scavenging assay; format: biochemical; conditions: mean ± S.D., n = 6
[6] = Hydroxyl radical scavenging assay; format: biochemical; conditions: mean ± S.D., n = 6
[7] = system: iron overload induced hepatotoxicity in mice; assay: Serum markers in iron-dextran overloaded mice after oral therapy; format: in vivo, Swiss albino mice; conditions: desirox 20 mg/kg b.w. oral
Description: (one dose every alternative days).
Aspartate amino transferase (ASAT), alanine amino transferase (ALAT), and billirubin levels in the serum were evaluated using commercially available kits from Merck (India). Moreover, alkaline phosphatase (ALP) levels in the serum were measured by a kit procured from Sentinel Diagnostics, Italy.

[8] = Superoxide anion scavenging assay; format: biochemical; conditions: mean ± S.D., n = 6
[9] = Singlet oxygen scavenging assay; format: biochemical; conditions: mean ± S.D., n = 6

## O=C1O[C@H]([C@@H](O)CO)C(O)=C1O [Ascorbic acid]
[1]
  IC50 DPPH scavenging: 5.29 ± 0.28 µg/mL (≈ 30 µM)
[2]
  Iron chelation activity (in words): failed to show any activity
[3]
  IC50 Hypochlorous acid (HOCl) scavenging: 235.96 ± 5.75 µg/mL (≈ 1340 µM)

## O.Oc1cc(O)c2c(c1)O[C@H](c1ccc(O)c(O)c1)[C@@H](O)C2 [catechin]
[2]
  Iron chelation activity (in words): failed to show any activity

## Cc1c(C)c2c(c(C)c1O)CCC(C)(C(=O)O)O2 (stereo not shown) [Trolox, 6-hydroxy-2,5,7,8-tetramethylchroman-2-carboxylic acid]
[4]
  IC50 Lipid peroxidation: 6.76 ± 0.17 µg/mL (≈ 27 µM)

## O=C(O)c1cc(O)c(O)c(O)c1 [Gallic acid]
[5]
  IC50 Peroxynitrite (ONOO-) scavenging: 876 ± 570 µg/mL (≈ 5150 µM)

## OC[C@@H](O)[C@@H](O)[C@H](O)[C@H](O)CO [Mannitol]
[6]
  IC50 Hydroxyl radical (OH•) scavenging: 571.45 ± 20.12 µg/mL (≈ 3140 µM)

## O=C(O)c1ccc(-n2nc(-c3ccccc3O)nc2-c2ccccc2O)cc1 [desirox, Deferasirox]
[7]; D, change versus blank group B
  ALAT % change: 52.80%
  ALP % change: 84.44%
  ASAT % change: 17.36%
  Bilirubin % change: 10.97%
[7]; serum, 21 days (D)
  ALAT: 23.55±1.09 ^X3Y3 Unit/L
  ALP: 61.01± 2.44 ^X3Y3 Unit/L
  ASAT: 79.35±4.37 ^X1 Y3 Unit/L

## COC(=O)[C@H]1[C@H]2C[C@@H]3c4[nH]c5cc(OC)ccc5c4CCN3C[C@H]2C[C@@H](OC(=O)c2cc(OC)c(OC)c(OC)c2)[C@@H]1OC [Reserpine, reserpine]
[2]
  Iron chelation activity (in words): failed to show any activity

## O=c1c(O)c(-c2ccc(O)c(O)c2)oc2cc(O)cc(O)c12 [Quercetin]
[8]
  IC50 Superoxide anion (O2•−) scavenging: 42.06 ± 1.35 µg/mL (≈ 139 µM)

## tannic acid
[2]
  Iron chelation activity (in words): most potent iron chelator

## O=C(O)CN(CCN(CC(=O)O)CC(=O)O)CC(=O)O [EDTA, Ethylenediamine tetraacetic acid]
[2]; mean ± S.D., n = 6
  IC50 Iron chelating activity: 1.27 ± 0.05 µg/mL (≈ 4.35 µM)

## O=C(O)CCCC[C@@H]1CCSS1 (racemic) [Lipoic acid]
[9]
  IC50 Singlet oxygen (1O2) scavenging: 46.15 ± 1.16 µg/mL (≈ 224 µM)
